This passage reports IC50 results from BindingDB's records for doi:10.1016/j.bmc.2004.08.050 (Yamanouchi Pharmaceutical, 2004).

Each structure is given as a SMILES string.

Test in all cases: HIV-1 RT Assay
Experiment [1] has as its target T1, Gag-Pol polyprotein [588-1027]/[588-1147] (Human immunodeficiency virus 1, UniProt P04585).
T1 construct: 588-1027; 588-1147

The target in experiment [2] is T2, Gag-Pol polyprotein [588-1127,Y768C]/[588-1147,Y768C] (Human immunodeficiency virus 1, UniProt P04585, Y768C).
T2 construct: 588-1127; 588-1147

In experiment [3] the target is T3, Gag-Pol polyprotein [588-1027,K690N]/[588-1147,K690N] (Human immunodeficiency virus 1, UniProt P04585, K690N).
T3 construct: 588-1027; 588-1147

Regarding `Cc1s/c(=N\S(=O)(=O)c2cccc([N+](=O)[O-])c2)n(C)c1C` [3-nitro-N-[(2Z)-3,4,5-trimethyl-2,3-dihydro-1,3-thiazol-2-ylidene]benzene-1-sulfonamide], the IC50 is 0.97 µM in experiment [1] (pH 8.4, 37 °C); 33 µM in experiment [2] (pH 8.4, 37 °C); over 50 µM in experiment [3] (pH 8.4, 37 °C).
On the same counts, the results for `Cc1c(C(C)(C)C)s/c(=N\S(=O)(=O)c2cccc([N+](=O)[O-])c2)n1C` [3-substituted thiazolidene deriv. 17a] are 0.27 µM, 0.066 µM and 13 µM.
With `CC(C)c1s/c(=N\S(=O)(=O)c2cccc([N+](=O)[O-])c2)n(C)c1C(N)=O` [5-Isopropyl-3-methyl-2-{[(3-nitrophenyl)sulfonyl]imino}-2,3-dihydro-1,3-thiazole-4-carboxamide], the IC50 in experiment [1] was 39 µM; in experiment [2], over 25 µM; in experiment [3], over 50 µM.
As for `COC(=O)c1c(C(C)C)s/c(=N\S(=O)(=O)c2cccc([N+](=O)[O-])c2)n1C` [Methyl 5-isopropyl-3-methyl-2-{[(3-nitrophenyl)-sulfonyl]imino}-2,3-dihydro-1,3-thiazole-4-carboxylate], the 50% inhibitory concentration (IC50) was over 50 µM in experiment [1], over 25 µM in experiment [2] and over 50 µM in experiment [3].
As for `Cc1c(C(C)C)s/c(=N\S(=O)(=O)c2cccc([N+](=O)[O-])c2)n1C` [N-(3,4-Dimethyl-5-isopropyl-1,3-thiazol-2(3H)-ylidene)-3-nitrobenzenesulfonamide], the IC50 in experiment [1] (pH 8.4, 37 °C) was 0.34 µM; in experiment [2] (pH 8.4, 37 °C) it was 0.071 µM; in experiment [3] (pH 8.4, 37 °C), 20 µM.
Take `C=Cc1s/c(=N\S(=O)(=O)c2cccc([N+](=O)[O-])c2)n(C)c1C` [N-(3,4-Dimethyl-5-vinyl-1,3-thiazol-2(3H)-ylidene)-3-nitrobenzenesulfonamide]: the IC50 in experiment [1] was determined as 0.15 µM; in experiment [2], 9.6 µM; in experiment [3] it was 6.2 µM.
On to `CC(C)c1s/c(=N\S(=O)(=O)c2cccc([N+](=O)[O-])c2)n(C)c1C#N` [N-(4-Cyano-5-isopropyl-3-methyl-1,3-thiazol-2(3H)-ylidene)-3-nitrobenzenesulfonamide], for which the IC50 was 0.62 µM in experiment [1], 0.64 µM in experiment [2] and over 50 µM in experiment [3].
In the case of `CC(C)Cc1c(C(C)C)s/c(=N\S(=O)(=O)c2cccc([N+](=O)[O-])c2)n1C` [N-(4-Isobutyl-5-isopropyl-3-methyl-1,3-thiazol-2(3H)-ylidene)-3-nitrobenzenesulfonamide], the IC50 in experiment [1] was over 50 µM; in experiment [2], over 25 µM; in experiment [3] it was over 50 µM.
`Cc1[nH]/c(=N/S(=O)(=O)c2cccc([N+](=O)[O-])c2)sc1C(C)(C)C` [N-(5-tert-Butyl-4-methyl-1,3-thiazol-2-yl)-3-nitrobenzenesulfonamide]: the IC50 was 0.37 µM in experiment [1] (pH 8.4, 37 °C); 0.47 µM in experiment [2] (pH 8.4, 37 °C); 32 µM in experiment [3] (pH 8.4, 37 °C).
In the same order, the values of `Cc1cs/c(=N\S(=O)(=O)c2cccc([N+](=O)[O-])c2)n1C` [N-[(2Z)-3,4-dimethyl-2,3-dihydro-1,3-thiazol-2-ylidene]-3-nitrobenzene-1-sulfonamide] are over 50 µM, over 50 µM and over 50 µM.
For `CC(C)c1cn(C)/c(=N/S(=O)(=O)c2cccc([N+](=O)[O-])c2)s1` [N-[(2Z)-3-methyl-5-(propan-2-yl)-2,3-dihydro-1,3-thiazol-2-ylidene]-3-nitrobenzene-1-sulfonamide], the IC50 in experiment [1] was 0.6 µM; in experiment [2], 0.7 µM; in experiment [3], over 50 µM.
On the same counts, the results for `CC(C)c1s/c(=N\S(=O)(=O)c2cccc([N+](=O)[O-])c2)n(C)c1C(F)(F)F` [N-[(2Z)-3-methyl-5-(propan-2-yl)-4-(trifluoromethyl)-2,3-dihydro-1,3-thiazol-2-ylidene]-3-nitrobenzene-1-sulfonamide] are 0.6 µM, 0.26 µM and 42 µM.
Turning to `CC(=O)c1sc(=NS(=O)(=O)c2cccc([N+](=O)[O-])c2)n(C)c1C` [N-[(2Z)-5-acetyl-3,4-dimethyl-2,3-dihydro-1,3-thiazol-2-ylidene]-3-nitrobenzene-1-sulfonamide], the IC50 in experiment [1], in experiment [2] and in experiment [3] was over 50 µM in each case.
As to `CCc1s/c(=N\S(=O)(=O)c2cccc([N+](=O)[O-])c2)n(C)c1C` [N-[(2Z)-5-ethyl-3,4-dimethyl-2,3-dihydro-1,3-thiazol-2-ylidene]-3-nitrobenzene-1-sulfonamide], the IC50 in experiment [1] (pH 8.4, 37 °C) was found to be 0.85 µM; in experiment [2] (pH 8.4, 37 °C) it was 0.47 µM; in experiment [3] (pH 8.4, 37 °C), 6.3 µM.
In the case of `CCn1c(C)c(C(C)(C)C)s/c1=N\S(=O)(=O)c1cccc([N+](=O)[O-])c1` [N-[(2Z)-5-tert-butyl-3-ethyl-4-methyl-2,3-dihydro-1,3-thiazol-2-ylidene]-3-nitrobenzene-1-sulfonamide], the values for the IC50 in experiment [1], in experiment [2] and in experiment [3] were 6 µM, 0.12 µM and over 50 µM, respectively.
In the case of `CC(C)c1s/c(=N\S(=O)(=O)c2cccc([N+](=O)[O-])c2)n(C)c1Cl` [thiazolidenebenzenesulfonamide deriv. 17k], the IC50 in experiment [1] amounted to 0.077 µM; in experiment [2], 0.13 µM; in experiment [3], 6.9 µM.
